Assay results published in patent publication US20250057822A1, “PSYCHO[…] TREATING HEARING-RELATED DISORDERS” (THE REGENTS OF THE UNIVERSITY OF CALIFORNIA, priority 2021, published 2025).

Experiments:
C57/B6 female mice = assay: Auditory brainstem response (ABR) assay, wave I amplitude; format: in vivo; settings: 1 mg/kg, 24 h post-treatment vs baseline (5-6 days pre-treatment), p<0.01, n=3
Method: The ABR amplitudes were analyzed at baseline (5-6 days pre-treatment) and 24 h post-treatment of vehicle (FIG. 2A and FIG. 2B) or 1 mg/kg of the psychoplastogen psilocin (FIG. 2C and FIG. 2D) at 8 and 16 kHz. Data are presented as mean±SEM. […] N=3 8-week old C57/B6 female mice per condition.
Auditory brainstem responses (ABRs) were recorded at baseline (5-6 days prior to treatment) and 24 h post treatment with psilocin (1 mg/kg). Mice were anesthetized via i.p. injections of ketamine (90 mg/kg) and xylazine (20 mg/kg). Subcutaneous electrodes were placed behind the right pinna (inverting) and vertex (active). A ground electrode was placed in the left leg of the mouse. Stimuli were 5-ms tone pips (2 ms cos2 rise-fall) delivered at 21/s with alternating stimulus polarity. Recorded electrical responses were filtered (300 Hz to 3 kHz) and averaged using BioSig software (TDT). The sound intensity level was decreased in 5 dB increments from 90 dB SPL-20 dB SPL. At each sound level 512 responses were averaged.
Wave I amplitudes were measured from the estimated baseline prior to the response to the peak of wave I in μV. ABR wave I amplitudes were analyzed at baseline (5-6 days pre-treatment) and 24 h post-treatment of psilocin (1 mg/kg). Data analyses and statistics were performed using Prism version 9.4 (GraphPad) and presented as mean±SEM. […]

[1] = tested on: inner hair cell ribbon synapses (organ of Corti); assay: Inner hair cell ribbon synapse density 24 h after psilocin treatment; format: in vivo, mice; settings: 1 mg/kg, 24 h after treatment, mean±SEM
Method: C57/B6 female mice, aged 8-weeks-old were treated with psilocin (1 mg/kg) (n=3) and Vehicle (0.9% saline) (n=2). […] Synapse density increase was not significant in the 8 kHz region (Vehicle: 16.50±3.826, psilocin: 17.79±3.826, P=0.5554). For each animal, 17-22 inner hair cells were quantified per frequency (8 kHz and 16 kHz regions of the organ of Corti). Data are presented as mean±SEM.*p<0.05.
8-week old C57/B6 mice were injected with 1 mg/kg psilocin or vehicle control (0).9% saline). 24 h later, mice were euthanized then inner ear tissues were collected for immunofluorescence. Isolated cochlea were punched into oval and round windows using a syringe needle and rinsed/fixed with 4% paraformaldehyde in 1×cold PBS. Then, cochlea were further fixed in 4% paraformaldehyde in 1×cold PBS for additional 2 hours at 4C0. Following fixation, samples were rinsed 3×20 min in PBS and dissected under a stereomicroscope to the three turns: apical, middle and basal. Tissues were permeabilized in PBS+0.25% Triton X-100 solution for 10 min at room temperature on a rocking platform; blocked with 10% goat serum and 25 mM glycine for 1 h at RT. […]

Structure (SMILES): CN(C)CCc1c[nH]c2cccc(O)c12 [psilocin]
- ABR wave I amplitude, change from baseline (C57/B6 female mice; 8 kHz): significantly increased
- ABR wave I amplitude, change from baseline (C57/B6 female mice; 16 kHz): significantly increased
- inner hair cell ribbon synapse density ([1]; 8 kHz region, not significant vs vehicle 16.50±3.826, P=0.5554): 17.79±3.826
- inner hair cell ribbon synapse density ([1]; 16 kHz region, significant vs vehicle 16±3.826, P=0.0169): 23.27±3.826
